Data taken from US12564578B2, “Collagen P4H1 inhibitor and its use” (University of Kentucky Research Foundation, priority 2019, dated 2026).
pIC50: −log10 of the molar value. Entries after “also recorded” stand apart in the source; their conditions may differ. Read-outs that look alike come from different tables or passages of the source.

Columns and labels:
[1] = molecular target: T1, human C-P4H1 (Homo sapiens, UniProt P13674); assay: Human C-P4H1 activity measured with Succinate-Glo Hydroxylase assay (also high-throughput screening); format: biochemical; details: for inhibition of C-P4H1 activity (luminescence): different concentrations, 200 nM C-P4H1
T1 construct: made in house; host or cells: HEK-293FT
Procedure: Human CP4H1 activity Assays were carried out at room temperature in 10 mM HEPES buffer containing 10 mM NaCl, pH 7.4. […] FeSO4 was prepared freshly in 10 mM HCl prior to each time use. Following 1 hour reaction, the reaction solution was subjected to Hydroxyproline Colorimetric Assay and Succinate-Glo™ Hydroxylase assay respectively.
(§1) Succinate-Glo™ Hydroxylase assay was ran following the protocol of Succinate-Glo™ JmjC Demethylase/Hydroxylase Assay (Promega, V7991). Briefly, following the human CP4H1 assay, 10 μL Succinate Detection Reagent I was added, including the enzymes 3-oxoacid CoA-transferase (SCOT) and succinyl CoA ligase (SCS), and acetoacetyl-CoA. See, TM488 Technical Manual and U.S. Pat. No. 9,677,117 for “Bioluminescent Succinate Detection Assay,” issued Jun. 13, 2017, assigned to Promega Corporation. Mix assay plate with a plate shaker for 30 seconds, and incubate at room temperature for 60 minutes. Add 20 μl of Succinate Detection Reagent II, including the enzyme luciferase, to each well of the assay plate to generate light from the ATP. See, Id. Mix assay plate with a plate shaker for 30 seconds, and incubate at room temperature for 10 minutes. Measure the luminescence with a plate-reading luminometer (BioTek).
[…] Then mix with peptide substrate (GlyProProGly(SEQ ID NO:1)OEt), 500 μM), FeSO4 (50 μM), catalase (0.1 mg/mL), ascorbate (2 mM), and α-ketoglutarate (100 μM) to react 1 hour at room temperature. The reaction volume was usually 10 μL. After the reaction, Succinate-Glo™ Hydroxylase assay was conducted in the corresponding 96-well or 384-well plate. 50 μM DHB was set as a positive control in each plate.

[2] = Succinate-Glo Hydroxylase assay in the absence of C-P4H1 (counter test); format: biochemical; details: no C-P4H1 in the reaction
Procedure: as §1
To further evaluate reliability of the Succinate-Glo™ assay, varied concentration of peptide substrate GPPG (FIG. 3A) and hydroxyl donor α-KG (FIG. 3B) were tested in the hydroxylation reaction, respectively. Increased concentration of GPPG and α-KG induced luminescence assay in a dose dependent manner. DHB has been identified as a C-P4Hs' inhibitor^35. To determine whether this assay can evaluate c-P4H1 inhibitor's activity, C-P4H1 was incubated with different concentration of DHB for 30 min at 4° C., and then the hydroxylation reaction and the bioluminescence-based assay were performed. […] The IC50 was detected at around 20 μM, which is much lower than the IC50 value of 0.1 mM reported in the previous research with the collagen hydroxylation assay in the chicken tendon cells (doi: 10.1042/bj2610127); this is probably due to the sensitivity difference between two methods. In the absence of C-P4H1, DHB had little effect on the Succinate-Glo™ assay, indicating the inhibitory effect is specific on the prolyl hydroxylation reaction (FIG. 3D).

[3] = tested on: collagen hydroxylation in chicken tendon cells; details: collagen hydroxylation assay, doi: 10.1042/bj2610127, read-out: IC50 reported in previous research; cited from earlier work
[4] = tested on: HS-578T cells; assay: Western blot of type I collagen in conditioned medium of treated cells; format: cell-based; details: 48 hours, 10 μM and 20 μM
Procedure: Chemical treated Hs578 cells were lysed in 2% sodium dodecyl sulfate (SDS) in phosphate-buffered saline (PBS) buffer containing phosphatase and protease inhibitor cocktails (EMD Millipore, 539131). Protein concentration was measured using Pierce™ BCA Protein Assay Kit (Thermo Fisher Scientific, 23227). Equal amounts of protein lysates or cell conditional medium (normalized to cell numbers) were subjected to SDS gel electrophoresis, immunoblotted with primary antibodies (Anti-Collagen I antibody, ab34710; Anti-tubulin, Cell Signaling 2148)) and DyLight 680/800-conjugated secondary antibodies (DyLight 680-conjugated goat anti-rabbit IgG secondary antibody Thermo Fisher Scientific, 35569; DyLight 800-conjugated goat anti-mouse IgG secondary antibody Thermo Fisher Scientific, SA5-35521).
To determine whether the identified potential inhibitors suppress the C-P4H1 activity in tissue culture, HS-578T cells were treated with Silodosin or Ticlopidine for 48 hours. Since collagen maturation and secretion was regulated by the C-P4H1, conditioned media were collected from control and Silodosin- or Ticlopidine-treated cells for western blot analysis.

[5] = tested on: MDA-MB-231 cells; assay: 3D culture assay, invasive branching / invasive growth; format: cell-based; details: MDA-MB-231, 10 μM and 20 μM, 48 hours
Procedure: (§2) 3D laminin-rich extracellular matrix (3D lrECM) on-top cultures were prepared by trypsinization of cells from tissue culture plastic^25. Growth Factor Reduced BD Matrigel™ was plated on the bottom of the cell culture dish. MDA-MB-231 and HS-578 cells were seeded on the top of the matrigel layer, and additional medium containing 10% Matrigel was added on the top.
(§3) All the 3D culture assay images were acquired by Nikon microscope and were quantified with the Nikon analysis software. Results are reported as mean±S.E.M; the significance of difference was assessed by independent Student's t-test. P<0.05 represents statistical significance and P<0.01 represents sufficiently statistical significance. All reported P values were 2-tailed.
(§4) It has been shown that silence of P4HAs suppress invasive tumor growth in three-dimensional (3D) tissue culture model^19,25. 3D culture model has been widely used to evaluate drug effect^38. To further evaluate the inhibitory ability of these chemicals in tumor progression, triple-negative breast cancer cell lines, MDA-MB-231 cells and HS-578T cells were treated with Silodosin and Ticlopidine in 3D culture^39. […] Invasive branching structure of cancer cells in 3D culture is associated with tumor invasion and aggressive phenotypes^15, 19, 25. […]

[6] = tested on: HS-578T cells; assay: 3D culture assay, invasive branching; format: cell-based; details: 10 μM and 20 μM, 24 hours
Procedure: as §2, §3, §4

T1 sequence (P13674 18-534): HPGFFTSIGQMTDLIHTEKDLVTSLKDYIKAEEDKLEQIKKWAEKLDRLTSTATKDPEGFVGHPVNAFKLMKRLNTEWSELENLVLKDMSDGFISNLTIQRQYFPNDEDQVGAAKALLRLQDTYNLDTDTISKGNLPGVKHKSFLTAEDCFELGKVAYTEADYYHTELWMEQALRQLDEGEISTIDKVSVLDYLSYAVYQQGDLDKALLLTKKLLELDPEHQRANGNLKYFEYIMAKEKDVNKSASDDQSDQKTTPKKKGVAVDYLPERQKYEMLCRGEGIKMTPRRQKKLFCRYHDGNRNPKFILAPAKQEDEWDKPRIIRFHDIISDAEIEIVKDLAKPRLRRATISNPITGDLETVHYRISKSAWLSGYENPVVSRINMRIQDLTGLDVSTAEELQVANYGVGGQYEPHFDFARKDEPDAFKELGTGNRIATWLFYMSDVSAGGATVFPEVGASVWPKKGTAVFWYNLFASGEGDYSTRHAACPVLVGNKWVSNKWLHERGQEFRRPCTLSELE
T1 sequence (P07237 18-508 partner): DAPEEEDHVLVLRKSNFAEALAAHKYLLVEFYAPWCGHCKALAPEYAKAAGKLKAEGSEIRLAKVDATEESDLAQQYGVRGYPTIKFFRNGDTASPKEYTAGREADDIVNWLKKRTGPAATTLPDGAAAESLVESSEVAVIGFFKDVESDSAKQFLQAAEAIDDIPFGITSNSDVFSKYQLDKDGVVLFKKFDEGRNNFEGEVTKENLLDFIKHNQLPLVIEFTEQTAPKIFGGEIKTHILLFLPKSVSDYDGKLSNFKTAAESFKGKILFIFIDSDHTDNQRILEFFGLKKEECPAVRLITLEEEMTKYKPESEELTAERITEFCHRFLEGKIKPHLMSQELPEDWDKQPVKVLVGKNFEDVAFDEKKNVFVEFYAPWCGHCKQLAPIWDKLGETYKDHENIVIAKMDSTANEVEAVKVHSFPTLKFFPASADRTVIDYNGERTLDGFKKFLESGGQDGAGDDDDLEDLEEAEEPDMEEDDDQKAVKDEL

| Compound | pIC50 ([1]; 0.1 μM WT C-P4HA1 (FIG. 3E), read-out: IC50 of wild type C-P4H1 inhibition) | pIC50 ([1]; C-P4H1 200 nM, preincubated 30 min at 4° C. (FIG. 3C), read-out: IC50 of C-P4H1 inhibition) | inhibition of C-P4H1 activity (luminescence) [1] | effect on the luminescence assay in the absence of C-P4H1 [2] | pIC50 [3] | kinetic property of C-P4H1 inhibition ([1]; dose curves, FIG. 4D and 4F) | effect on the luminescence assay in the absence of C-P4H1 ([2]; listed as Silodocin) | protein levels of type I collagen in the conditioned media [4] | invasive branching structures in 3D culture [5] | invasive branching structures in 3D culture [6] |
| --- | --- | --- | --- | --- | --- | --- | --- | --- | --- | --- |
| CCOC(=O)c1ccc(O)c(O)c1 [DHB, ethyl-3,4-dihydroxybenzoic acid] | ~4.40 | ~4.70 | significantly reduced luminescence values | little effect; also recorded: did not inhibit | 4.00 |  |  |  |  |  |
| C[C@H](Cc1cc2c(c(C(N)=O)c1)N(CCCO)CC2)NCCOc1ccccc1OCC(F)(F)F [Silodosin] |  |  | inhibited C-P4H1 activity in a dose-dependent manner | little effect |  | faster kinetic property compared to ticlopidine | did not inhibit | reduced protein levels of type I collagen | significantly reduced invasive branching structures | significantly reduced invasive branching structures |
